Active and inactive are the calls of the source.
Test system: Streptococcus
Assay: GAS UMAA2166 growth inhibition – luminescence, BacTiterGlo, counter-screen for streptokinase expression inhibitor project, dose response (AID 1915);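 also: potency for reduction of bacterial viability or growth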
Type: functional, organism-based
Conditions: not given

Structure (SMILES) | EC50
O=C(O)c1ccc(N=Nc2c(O)[nH]c3ccc(Br)cc23)cc1 | 8.12 µM (active)
Clc1ccc(-c2[nH]nc3c2CCC3)cc1Cl | 13.9 µM (active)
Cc1cc(C)c2c(n1)sc1c(=O)n(CC(=O)c3ccccc3)cnc12 | 5.59 µM (active)
CCOC(=O)c1ccc(-c2ccc3c(=O)c4ccccc4n(C)c3c2)cc1F | > 150 µM (not active)
Cc1ccc(OCc2ccc(C(=O)Nc3c(C)nn(Cc4c(F)c(F)c(F)c(F)c4F)c3C)o2)c([N+](=O)[O-])c1 | > 150 µM (not active)
O=C(NCc1ccccn1)Nc1ccc(F)c(Cl)c1 | > 150 µM (not active)
Cc1ccc(-c2cc(C(F)F)nc(N3CCC(C)CC3)n2)cc1 | 10 µM (active)
CN(CC1CCCO1)S(=O)(=O)c1ccc(C(=O)Nc2nnc(-c3ccccc3)o2)cc1 (stereo not drawn) | 12.2 µM (active)
CCC(C)Sc1cc(-c2nc3ccc(C)cn3c2NCc2ccccc2)ccc1OC (stereo not drawn) | 9.32 µM (active)

Target: T1, Streptokinase A (Streptococcus pyogenes serotype M1, UniProt P10520)
T1 sequence (P10520 whole entry): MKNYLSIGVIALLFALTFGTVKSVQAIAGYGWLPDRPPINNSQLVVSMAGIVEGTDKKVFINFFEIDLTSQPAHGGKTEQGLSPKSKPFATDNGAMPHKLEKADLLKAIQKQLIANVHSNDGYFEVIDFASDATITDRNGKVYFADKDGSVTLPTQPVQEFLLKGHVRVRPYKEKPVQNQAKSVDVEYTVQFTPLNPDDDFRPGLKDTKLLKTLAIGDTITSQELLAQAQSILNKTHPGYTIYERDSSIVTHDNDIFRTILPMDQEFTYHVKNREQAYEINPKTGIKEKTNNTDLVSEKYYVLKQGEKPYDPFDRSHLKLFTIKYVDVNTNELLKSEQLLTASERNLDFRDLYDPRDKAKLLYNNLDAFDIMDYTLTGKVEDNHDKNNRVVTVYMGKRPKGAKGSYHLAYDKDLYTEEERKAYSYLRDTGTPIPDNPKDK
Assay: viability-normalized secreted streptokinase activity reduction – plasminogen activation absorbance, OD405, dose response (AID 1914);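 also: secreted streptokinase activity via plasminogen activation per viability signal from cell pellet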
Type: functional, Streptococcus pyogenes M1 GAS
Conditions: not given

Structure (SMILES) | EC50
Clc1ccc(-c2[nH]nc3c2CCC3)cc1Cl | > 150 µM (not active)
Cc1cc(C)c2c(n1)sc1c(=O)n(CC(=O)c3ccccc3)cnc12 | > 150 µM (not active)
CCOC(=O)c1ccc(-c2ccc3c(=O)c4ccccc4n(C)c3c2)cc1F | > 150 µM (not active)
Cc1ccc(OCc2ccc(C(=O)Nc3c(C)nn(Cc4c(F)c(F)c(F)c(F)c4F)c3C)o2)c([N+](=O)[O-])c1 | 25.6 µM (inconclusive)
O=C(NCc1ccccn1)Nc1ccc(F)c(Cl)c1 | > 150 µM (not active)
Cc1ccc(-c2cc(C(F)F)nc(N3CCC(C)CC3)n2)cc1 | > 150 µM (not active)
CCC(C)Sc1cc(-c2nc3ccc(C)cn3c2NCc2ccccc2)ccc1OC (stereo not drawn) | 2.75 µM (active)

Target: Cytochrome P450 2C19 (Homo sapiens, UniProt P33261)
Assay: Cytochrome panel assay with activity outcomes. Panel member name: p450-cyp2c19 Compounds with AC50 equal or less than 10 uM are considered active
Type: functional
Conditions: not given

Sequence of Cytochrome P450 2C19 (P33261 whole entry): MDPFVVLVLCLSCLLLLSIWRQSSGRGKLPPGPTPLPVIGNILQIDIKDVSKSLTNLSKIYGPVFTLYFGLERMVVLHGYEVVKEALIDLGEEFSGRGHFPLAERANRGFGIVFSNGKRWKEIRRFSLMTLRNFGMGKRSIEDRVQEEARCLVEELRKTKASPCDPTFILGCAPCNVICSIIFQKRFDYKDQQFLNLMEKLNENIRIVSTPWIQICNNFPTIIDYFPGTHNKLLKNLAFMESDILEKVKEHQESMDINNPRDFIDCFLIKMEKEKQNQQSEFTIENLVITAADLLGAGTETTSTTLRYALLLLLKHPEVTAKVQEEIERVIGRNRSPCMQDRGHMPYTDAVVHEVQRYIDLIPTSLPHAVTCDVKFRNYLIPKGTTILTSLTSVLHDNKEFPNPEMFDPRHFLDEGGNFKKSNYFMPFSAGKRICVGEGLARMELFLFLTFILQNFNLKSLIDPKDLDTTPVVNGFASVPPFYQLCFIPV

Structure (SMILES) | AC50
O=C(O)Cc1ccc2ocnc2c1 | inconclusive
Cc1cc(=O)oc(C)c1C(=O)NCc1ccccn1 | inconclusive
Cc1occc1C(=O)NNC(=O)c1ccc(F)cc1 | inconclusive

Same assay, conditions: read-out: AC50

Structure (SMILES) | AC50
CC(C)CN(CC(C)C)S(=O)(=O)N1CCC(C(=O)NCc2ccc(F)cc2)CC1 | 25.1 µM (inconclusive)
Cc1cnc(CNc2ncnc3ccc(-c4ccc5c(c4)OCO5)cc23)cn1 | 15.8 µM (inconclusive)
CC(=O)N(CC(=O)O)c1ccccc1C(=O)O | 0.0562 µM (inconclusive)
O=C1C=C(NCCN2CCOCC2)CC(c2ccccc2)C1 (stereo not drawn) | 39.8 µM (inconclusive)

Target: Cytochrome P450 2D6 (Homo sapiens, UniProt P10635);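 also: CYP2D6 member of a cytochrome P450 panel assay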
Conditions: not given

Sequence of Cytochrome P450 2D6 (P10635 whole entry): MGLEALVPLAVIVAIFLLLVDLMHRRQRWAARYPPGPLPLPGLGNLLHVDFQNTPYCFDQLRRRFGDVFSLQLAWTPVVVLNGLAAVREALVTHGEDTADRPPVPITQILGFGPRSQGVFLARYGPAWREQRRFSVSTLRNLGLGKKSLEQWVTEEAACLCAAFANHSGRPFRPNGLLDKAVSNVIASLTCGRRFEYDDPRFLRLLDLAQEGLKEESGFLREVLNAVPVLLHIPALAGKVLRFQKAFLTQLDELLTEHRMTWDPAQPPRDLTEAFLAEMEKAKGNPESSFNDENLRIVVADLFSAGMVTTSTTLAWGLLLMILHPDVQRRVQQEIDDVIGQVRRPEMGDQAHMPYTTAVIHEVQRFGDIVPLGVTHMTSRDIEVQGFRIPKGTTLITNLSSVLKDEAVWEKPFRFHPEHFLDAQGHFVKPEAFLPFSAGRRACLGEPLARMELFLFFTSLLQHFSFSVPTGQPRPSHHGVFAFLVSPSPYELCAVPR

Structure (SMILES) | AC50
O=c1c2ccccc2c(-c2ccccc2)nn1-c1ccc(Cl)c(Cl)c1 | 10 µM (inconclusive)
Cc1cccc(CNc2ncncc2-c2cccnc2)c1 | 25.1 µM (inconclusive)
Cc1ccc(S(=O)(=O)Nc2cc(O)nc3c2CCC3)cc1 | 2.51 µM (inconclusive)
COc1ccccc1CNc1nc(-c2ccoc2)nc2ccccc12 | 6.31 µM (active)
COc1ncc2nc(C)c(=O)n(Cc3cccs3)c2n1 | 25.1 µM (inconclusive)
CCn1c2ccccc2c2cc(NC(=O)C/C(C)=N/NC(=O)c3ccccc3N)ccc21 | 25.1 µM (inconclusive)

Target: T2, Corticotropin-releasing factor receptor 2/Corticotropin-releasing factor-binding protein (Homo sapiens, UniProt P24387+Q13324)
T2 sequence (Q13324 whole entry): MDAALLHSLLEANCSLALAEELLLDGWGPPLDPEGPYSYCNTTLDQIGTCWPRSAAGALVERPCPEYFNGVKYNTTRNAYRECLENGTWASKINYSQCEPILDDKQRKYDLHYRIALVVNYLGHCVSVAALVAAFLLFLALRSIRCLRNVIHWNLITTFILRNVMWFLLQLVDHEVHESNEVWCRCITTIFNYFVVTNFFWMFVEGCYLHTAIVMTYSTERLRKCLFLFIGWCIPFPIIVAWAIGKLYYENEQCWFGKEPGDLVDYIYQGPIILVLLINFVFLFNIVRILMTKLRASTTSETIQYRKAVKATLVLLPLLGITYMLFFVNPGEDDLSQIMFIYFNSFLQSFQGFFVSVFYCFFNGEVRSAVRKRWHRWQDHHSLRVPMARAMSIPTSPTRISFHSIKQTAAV
T2 sequence (P24387 whole entry): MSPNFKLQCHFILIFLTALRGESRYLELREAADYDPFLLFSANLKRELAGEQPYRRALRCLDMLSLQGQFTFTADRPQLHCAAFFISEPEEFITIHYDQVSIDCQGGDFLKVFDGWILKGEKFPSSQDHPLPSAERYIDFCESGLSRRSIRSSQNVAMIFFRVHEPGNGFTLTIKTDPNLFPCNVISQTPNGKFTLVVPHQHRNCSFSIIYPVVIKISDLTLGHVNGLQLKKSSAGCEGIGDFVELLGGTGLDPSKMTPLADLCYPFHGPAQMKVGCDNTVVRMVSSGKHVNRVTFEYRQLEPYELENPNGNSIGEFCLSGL
Assay: activators of CRF receptor 2 with binding protein – uHTS hits, confirmation (AID 602473)
Type: functional
Conditions: read-out: EC50_Mean

Structure (SMILES) | EC50
Cc1cc2nc(/C(C#N)=C\c3ccc(-c4ccccc4C(=O)O)o3)[nH]c2cc1C | 5.8 µM (active)
O=C(NCc1ccc(OC(F)(F)F)cc1)c1cccc2c1C(=O)c1ccc(N3CCCC3)cc1S2(=O)=O | 11.8 µM (active)
CC(Oc1ccc(Cl)cc1)C(=O)Nc1ccccc1N1CCOCC1 (stereo not drawn) | 7.37 µM (active)
COc1ccccc1N(CC(=O)N1CCCCC1C)S(=O)(=O)c1ccc(Cl)cc1 (stereo not drawn) | 5.95 µM (active)
CNc1nc(N(C)C)nc(N(C)C)n1 [PENTAMETHYL MELAMINE] | > 53 µM (inactive)

Test system: Streptococcus sp. 'group A'
Assay: Streptococcus pyogenes SK(-)GAS viability under kanamycin – luminescence, BacTiterGlo, confirmation, counter-screen for streptokinase expression inhibitor project, dose response (AID 1900)
Type: functional, organism-based
Conditions: not given

Structure (SMILES) | EC50
O=C(O)c1ccc(N=Nc2c(O)[nH]c3ccc(Br)cc23)cc1 | 4.19 µM (active)
Clc1ccc(-c2[nH]nc3c2CCC3)cc1Cl | 8.42 µM (active)
Cc1cc(C)c2c(n1)sc1c(=O)n(CC(=O)c3ccccc3)cnc12 | 0.95 µM (active)
CCOC(=O)c1ccc(-c2ccc3c(=O)c4ccccc4n(C)c3c2)cc1F | 3.46 µM (active)
Cc1ccc(OCc2ccc(C(=O)Nc3c(C)nn(Cc4c(F)c(F)c(F)c(F)c4F)c3C)o2)c([N+](=O)[O-])c1 | 25.3 µM (active)
O=C(NCc1ccccn1)Nc1ccc(F)c(Cl)c1 | > 150 µM (not active)
Cc1ccc(-c2cc(C(F)F)nc(N3CCC(C)CC3)n2)cc1 | 6.63 µM (active)
CN(CC1CCCO1)S(=O)(=O)c1ccc(C(=O)Nc2nnc(-c3ccccc3)o2)cc1 (stereo not drawn) | 4.14 µM (active)
CCC(C)Sc1cc(-c2nc3ccc(C)cn3c2NCc2ccccc2)ccc1OC (stereo not drawn) | 2.32 µM (active)

Source: ChEMBL document CHEMBL1201862, “PubChem BioAssay data set” (2004)
